The record followed here is patent publication US20260364184A1, “COMPOUND BASED ON OXOISOINDOLINYL-SUBSTITUTED TETRAHYDROPYRIMIDINE-DIONE AND USE THEREOF” (GLUETACS THERAPEUTICS (SHANGHAI) CO., LTD., priority 2023, published 2026).

Read-outs that look alike come from different tables or passages of the source.

Broadly, the inhibition is the share of the control response that was lost under treatment.

Test [1] has as its system Human large cell immunoblastic lymphoma cell line SR. The test can be described thus: Inhibition of SR cell proliferation (CellTiter luminescent viability). The following applies: 96 hours; for inhibition at 0.01 µM / inhibition at 0.5 µM: Homo sapiens, Table IB2, ALK inhibitor-based; for inhibition at 0.01 µM: 10 nM, read-out: Inhibition Rate at 10 nM (%); for inhibition at 0.5 µM: 500 nM, read-out: Inhibition Rate at 500 nM (%); for IC50: Table IA1, IRAK4 inhibitor-based, read-out: Inhibitory activity (IC50, nM) on tumor cell proliferation, SR. Format: cell-based. A digest of the protocol: (§1)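 Cells are seeded in 96-well plates, cultured at 37 °C, 5% CO2, and treated next day with 5-fold serial compound dilutions (stock series from 2000 μM; 0.5 μL into 100 μL medium). Viability is read by CellTiter-Meiluncell luminescence after the set exposure, and IC50 is taken from growth-inhibition curves.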

For test [2], the system named is Human non-small cell lung cancer cell line NCI-H2228. The test can be described thus: Inhibition of H2228 cell proliferation (CellTiter luminescent viability). The following applies: Table IB2, ALK inhibitor-based, 96 hours; for inhibition at 0.01 µM: H2228, 10 nM, read-out: Inhibition Rate at 10 nM (%); for inhibition at 0.5 µM: H2228, 500 nM, read-out: Inhibition Rate at 500 nM (%). The protocol: (§2) The tumor cells used herein were cultured in a cell culture medium listed in table 3 at 37 °C in an incubator with 5% CO2. Prior to experimentation, all cell lines used were correctly identified by STR profiling, and tested negative for mycoplasma contamination using a mycoplasma detection kit through routine screenings.
(§3) The IC50 values of the compounds of the present disclosure (including the compounds in Table 1, Table 2, and Examples 1-468) were determined using the CellTiter-Meiluncell Luminescent Cell Viability Assay Kit from Dalian Meilun Biotech Co., Ltd. The detailed procedure is as follows: Tumor cells were seeded in 96-well cell culture plates at the densities specified in Table 4. On the following day, the test compounds of the present disclosure were subjected to serial dilution. The dilution can be performed according to one of the following two methods: • (1) The first dilution method: The test compounds of the present disclosure (including the compounds in Table 1, Table 2, and Examples 1-468) were subjected to 5-fold serial dilutions starting from a highest concentration of 2000 μM, resulting in a total of 9 concentrations from high to low (2000, 400, 80, 16, 3.2, 0.64, 0.128, 0.0256, 0.00512 μM). Subsequently, 0.5 μL of the test compound dilution was transferred into the 96-well plate containing the cells, with each well containing 100 μL of cell culture medium. […] Into the 96-well plate, the diluted test compounds and corresponding detection reagents were added, resulting in final test compound concentrations of 500 nM and 10 nM, respectively. The experimental procedure is described below using the diluted 2 μM test compound as an example.
(§4) 0.5 μL of the aforementioned diluted compound of the present disclosure (including the compounds in Table 1, Table 2, and Examples 1-468) was added to the seeded cells in 100 μL of medium, yielding a final test compound concentration of 10 nM. After the cells were treated with the compounds of the present disclosure for a specified period, the cell viability assay reagent was added to the culture medium according to the kit's instructions to determine cell viability. […] All controls were treated using the same procedure as the compounds of the present disclosure. The growth inhibition curves for the compounds of the present disclosure were plotted using Prism GraphPad software, and the IC50 values were calculated therefrom.

Test [3] deals with Human myeloid monocytic leukemia cell line (MV-4-11). As to the kind of experiment: Inhibition of MV-4-11 cell proliferation (CellTiter luminescent viability). The format is cell-based. To be noted: Homo sapiens, MV4-11, 96 hours; for inhibition at 0.01 µM: MV-4-11, 10 nM, read-out: Inhibition Rate at 10 nM (%); for inhibition at 0.5 µM: MV-4-11, 500 nM, read-out: Inhibition Rate at 500 nM (%). A digest of the protocol: as §1

Test [4] has as its system Human gastric cancer cell line MGC803. The test can be described thus: Inhibition of MGC803 tumor cell proliferation (CellTiter luminescent viability). The following applies: MGC803, 96 hours, read-out: Inhibitory activity (IC50, nM) on tumor cell proliferation, MGC803. The format is cell-based. The protocol: as §2, §3, §4
Test [5] relates to Human T lymphocytic leukemia cell line (Jurkat). As to the kind of experiment: Inhibition of Jurkat cell proliferation (CellTiter luminescent viability). The format is cell-based. To be noted: 96 hours, read-out: Inhibitory activity (IC50, nM) on tumor cell proliferation, Jurkat.
The test system of the next test is JEKO-1. As to the kind of experiment: Inhibition of JEKO-1 cell proliferation (CellTiter luminescent viability). To be noted: JEKO-1, 96 hours, read-out: Inhibitory activity (IC50, nM) on tumor cell proliferation, JEKO-1. Format: cell-based, human. The protocol: as §2, §3, §4
Test [6] has as its system Human non-small cell lung cancer cell line NCI-H1975. As to the kind of experiment: Inhibition of H1975 cell proliferation (CellTiter luminescent viability). The following applies: Table IC1, BTK inhibitor-based; H1975, 96 hours; read-out: Inhibitory activity (IC50, nM) on tumor cell proliferation, H1975. The format is cell-based. A digest of the protocol: as §1
Test [7] has as its system Human Multiple myeloma cell line (MM.1S). As to the kind of experiment: Inhibition of MM.1S cell proliferation (CellTiter luminescent viability). Format: cell-based. To be noted: 96 hours, read-out: Inhibitory activity (IC50, nM) on tumor cell proliferation, MM.1S. A digest of the protocol:
as §1

For the next test, the target named is T1, IRAK4 (Homo sapiens, UniProt Q9NWZ3).
T1 construct: expression of target proteins in cells; endogenous in cells
T1 sequence (Q9NWZ3 1-460): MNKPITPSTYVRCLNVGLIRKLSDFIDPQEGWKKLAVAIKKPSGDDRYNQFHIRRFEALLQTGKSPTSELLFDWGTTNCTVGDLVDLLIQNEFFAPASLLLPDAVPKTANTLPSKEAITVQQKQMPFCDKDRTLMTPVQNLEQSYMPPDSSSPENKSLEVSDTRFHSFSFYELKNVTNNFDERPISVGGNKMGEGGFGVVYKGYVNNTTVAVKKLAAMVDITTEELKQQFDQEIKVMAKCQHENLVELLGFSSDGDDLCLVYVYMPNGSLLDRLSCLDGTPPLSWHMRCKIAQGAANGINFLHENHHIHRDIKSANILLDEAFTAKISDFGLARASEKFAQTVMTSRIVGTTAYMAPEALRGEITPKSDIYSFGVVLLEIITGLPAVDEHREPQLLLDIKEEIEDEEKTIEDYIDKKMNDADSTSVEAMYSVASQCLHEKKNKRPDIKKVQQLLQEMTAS
The test can be described thus: Western blot degradation of IRAK4. Format: cell-based. The following applies: hPBMC Cell; 24 hours. A digest of the protocol: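 Compound-treated cells harvested; lysates denatured 5 min at 95 °C, run on SDS-PAGE, blotted to NC membrane, blocked 1 h RT, probed with antibodies. Densitometry vs DMSO → DC50; target normalised to internal control → % remaining, degradation = 1 − remaining.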

Test [8] in a line: Inhibition of RPMI-8226 cell proliferation (CellTiter luminescent viability). To be noted: Homo sapiens; Table IA4, IRAK4 inhibitor-based; RPMI-8226, 10 nM, 96 hours; read-out: Inhibition Rate at 10 nM (%). The format is cell-based.
For test [9], the system named is Human B-Cell Lymphoma Cells (RPMI-8226). The description is as above. The following applies: Table IA4, IRAK4 inhibitor-based, RPMI-8226, 500 nM, 96 hours, read-out: Inhibition Rate at 500 nM (%). The format is cell-based.
Setting [10] is: Table IA1, IRAK4 inhibitor-based compounds.
[11] abbreviates: Table IA1, IRAK4 inhibitor-based.
Setting [12] is: Table IA3, IRAK4 inhibitor-based.

In the case of `COc1cc(N2CCC(N3CCN(Cc4ccc5c(c4)C(=O)N(N4CCC(=O)NC4=O)C5=O)CC3)CC2)ccc1Nc1ncc(Cl)c(Nc2ccccc2P(C)(C)=O)n1` [GT-08147, 5-((4-(1-(4-((5-chloro-4-((2-(dimethylphosphoryl)phenyl)amino)pyrimidin-2-yl)amino)-3-methoxyphenyl)piperidin-4-yl)piperazin-1-yl)methyl)-2-(2,4-dioxotetrahydropyrimidin-1(2H)-yl)isoindoline-1,3-dione], the inhibition at 0.01 µM fell in the range of 10 to 15% in test [1]; 20 to 30% in [2]; 20 to 30% in test [3] (Table IB2, ALK inhibitor-based). Further, the inhibition at 0.5 µM in test [1] lay within 90 to 100%; in test [2], 45 to 55%; in test [3] (Table IB2, ALK inhibitor-based), 60 to 80%.
For the molecule `COc1cc(N2CCC(N3CCN(Cc4ccc5c(c4)CN(N4CCC(=O)NC4=O)C5=O)CC3)CC2)ccc1Nc1ncc(Cl)c(Nc2ccccc2P(C)(C)=O)n1` [GT-08146, 1-(5-((4-(1-(4-((5-chloro-4-((2-(dimethylphosphoryl)phenyl)amino)pyrimidin-2-yl)amino)-3-methoxyphenyl)piperidin-4-yl)piperazin-1-yl)methyl)-1-oxoisoindolin-2-yl)dihydropyrimidine-2,4 (1H,3H)-dione], the inhibition at 0.01 µM in test [1] is 45 to 55%; in [2] it was 20 to 30%; in test [3] (Table IB2, ALK inhibitor-based) it was 15 to 20%. Moreover, the inhibition at 0.5 µM was 90 to 100% in [1]; 60 to 80% in [2]; 90 to 100% in [3] (Table IB2, ALK inhibitor-based).
Regarding `C=CC(=O)N1CCC(c2ccc(C(N)=O)c(-c3ccc(Oc4ccccc4)cc3)n2)CC1` [Orelabrutinib, reference compound], the IC50 in [4] (Table IC1, BTK inhibitor-based) was above 10000 nM; in test [5] (Table IC1, BTK inhibitor-based), above 10000 nM; with JEKO-1 (Table IC1, BTK inhibitor-based) it was above 10000 nM; in test [6] it was above 10000 nM; in test [7] (Table IC1, BTK inhibitor-based), above 10000 nM.
On to `COc1cc(N2CCC(N(C)Cc3ccc4c(c3)CN(N3CCC(=O)NC3=O)C4=O)CC2)ccc1Nc1ncc(Cl)c(Nc2ccccc2P(C)(C)=O)n1` [GT-08148, 1-(5-(((1-(4-((5-chloro-4-((2-(dimethylphosphoryl)phenyl)amino)pyrimidin-2-yl)amino)-3-methoxyphenyl)piperidin-4-yl)(methyl)amino)methyl)-1-oxoisoindolin-2-yl)dihydropyrimidine-2,4 (1H,3H)-dione], for which the inhibition at 0.01 µM lay within 30 to 45% in test [1]; 15 to 20% in test [2]; 5 to 10% in [3] (Table IB2, ALK inhibitor-based). Moreover, the inhibition at 0.5 µM was in the range of 90 to 100% in test [1]; 45 to 55% in [2]; 60 to 80% in test [3] (Table IB2, ALK inhibitor-based).
`O=C1CCN(N2Cc3cc(CN4CCC(N5CCN(c6ccc7c(c6)nc(NC(=O)c6cccc(C(F)(F)F)c6)n7[C@H]6CC[C@@H](CO)CC6)CC5)CC4)ccc3C2=O)C(=O)N1` [GT-05019, N-(5-(4-(1-((2-(2,4-dioxotetrahydropyrimidin-1(2H)-yl)-1-oxoisoindolin-5-yl)methyl)piperidin-4-yl)piperazin-1-yl)-1-((1s,4s)-4-(hydroxymethyl)cyclohexyl)-1H-benzo[d]imidazol-2-yl)-3-(trifluoromethyl)benzamide]: the IC50 (in test [1]; in [4] (setting [10]); in [5] (setting [11]); in the test with JEKO-1 (setting [11]); in [7] (setting [11])) was 500 to 1000 nM in each case. For the same molecule, the “Degradation of substrate protein IRAK4 (substrate protein remaining %)” value at IRAK4 is given as “A (0%≤substrate protein remaining %≤80%)”.
As to `C=CC(=O)N1CCC[C@@H](n2nc(-c3ccc(Oc4ccccc4)cc3)c3c(N)ncnc32)C1` [ibrutinib, Ibrutinib, reference compound], the IC50 in test [4] (Table IC1, BTK inhibitor-based) was above 10000 nM; in test [5] (Table IC1, BTK inhibitor-based), above 10000 nM; in the test with JEKO-1 (Table IC1, BTK inhibitor-based), above 10000 nM; in test [6], 1000 to 5000 nM; in test [7] (Table IC1, BTK inhibitor-based), above 10000 nM.
Take `O=C1CCN(N2Cc3cc(CN4CCN(c5ccc6c(c5)nc(NC(=O)c5cccc(C(F)(F)F)c5)n6[C@H]5CC[C@@H](CO)CC5)CC4)ccc3C2=O)C(=O)N1` [GT-04949, N-(5-(4-((2-(2,4-dioxotetrahydropyrimidin-1(2H)-yl)-1-oxoisoindolin-5-yl)methyl)piperazin-1-yl)-1-((1s,4s)-4-(hydroxymethyl)cyclohexyl)-1H-benzo[d]imidazol-2-yl)-3-(trifluoromethyl)benzamide]: the IC50 is 100 to 300 nM in [1]; 500 to 1000 nM in test [4] (setting [10]); 500 to 1000 nM in [5] (setting [11]); 100 to 300 nM in the test with JEKO-1 (setting [11]); 100 to 300 nM in test [7] (setting [11]).
For the molecule `CC[C@@H]1[C@H](F)C(=O)N[C@@H]1COc1nccc2cc(C(N)=O)c(OC)cc12` [PF06650833, PF-06650833, reference compound], the IC50 in test [1] was 1000 to 5000 nM; in test [4] (setting [10]), 5000 to 10000 nM; in test [5] (setting [11]), 5000 to 10000 nM; with JEKO-1 (setting [11]), 500 to 1000 nM; in test [7] (setting [11]), above 10000 nM. The inhibition at 0.01 µM in [8] is 0 to 5%; in test [3] (setting [12]) it was 20 to 36%. Besides, the inhibition at 0.5 µM in test [9] was 10 to 15%; in [3] (setting [12]), 20 to 36%.
